Measured values as given in ChEMBL document CHEMBL1221373, “Lactarane sesquiterpenoids from Lactarius subvellereus and their cytotoxicity” (Bioorg Med Chem Lett, 2010).

How the values were obtained:
Type in all cases: functional, cell-based
[1] = tested on: A549; assay: Cytotoxicity against human A549 cells by SRB assay
[2] = tested on: SK-OV-3; assay: Cytotoxicity against human SKOV3 cells by SRB assay
[3] = tested on: SK-MEL-2; assay: Cytotoxicity against human SK-MEL-2 cells by SRB assay
[4] = tested on: HCT-15; assay: Cytotoxicity against human HCT15 cells by SRB assay

C[C@@H]1[C@@H]2C(=CC3=C(C(=O)O[C@@H]3O)[C@@H]1O)CC(C)(C)[C@@H]2O [SUBVELLEROLACTONES D]
IC50 [1]: 25.1 µM | IC50 [2]: > 30 µM | IC50 [3]: > 30 µM | IC50 [4]: 17.8 µM

CC1(C)C[C@@H]2[C@H]([C@H]1O)[C@@](C)(O)CC1=C(C(=O)OC1)[C@H]2O [5-DESOXYLACTAROLIDE B]
IC50 [1]: 17.9 µM | IC50 [2]: > 30 µM | IC50 [3]: > 30 µM | IC50 [4]: 29.3 µM

C[C@@H]1[C@@H]2C(=CC3=C(C(=O)O[C@H]3O)[C@@H]1O)CC(C)(C)[C@@H]2O [SUBVELLEROLACTONES E]
IC50 [1]: 19.6 µM | IC50 [2]: > 30 µM | IC50 [3]: > 30 µM | IC50 [4]: 28.7 µM

CC1(C)C[C@H]2[C@H](O)C3=C(C[C@](C)(O)[C@H]2C1)C(=O)OC3 [LACTARORUFIN A]
IC50 [1]: 27 µM | IC50 [2]: > 30 µM | IC50 [3]: > 30 µM | IC50 [4]: 20.9 µM

CC1(C)C[C@H]2[C@H](O)c3cocc3C[C@](C)(O)[C@H]2C1 [FURANDIOL]
IC50 [1]: > 30 µM | IC50 [2]: > 30 µM | IC50 [3]: > 30 µM | IC50 [4]: > 30 µM

COc1cccc2c1C(=O)c1c(O)c3c(c(O)c1C2=O)C[C@@](O)(C(=O)CO)C[C@@H]3O[C@H]1C[C@H](N)[C@H](O)[C@H](C)O1 [DOXORUBICIN]
IC50 [2]: 0.001 µM | IC50 [3]: 0.002 µM | IC50 [4]: 0.028 µM

CC1(C)C[C@H]2[C@H](O)C3=C(C[C@](C)(O)[C@H]2C1)C(=O)OC3O (stereo partly specified) [LACTAROLIDE A]
IC50 [1]: 22.9 µM | IC50 [2]: > 30 µM | IC50 [3]: 28.3 µM | IC50 [4]: 28.6 µM

C[C@H]1CC2=C(COC2=O)C[C@@H]2[C@@H](O)[C@](C)(CO)C[C@@]21O [SUBVELLEROLACTONES B]
IC50 [1]: 26.5 µM | IC50 [2]: > 30 µM | IC50 [3]: 18.3 µM | IC50 [4]: 14.2 µM
